Measurements as given in patent US20040102468A1 (Gruenenthal GmbH, priority 2001, published 2004).

How the values were obtained:
[1] = system: female Sprague-Dawley rats with oxyhaemoglobin-induced bladder overactivity; assay: Cystometry on conscious damaged rats (oxyhaemoglobin-induced bladder overactivity, urgency incontinence model); assay type: in vivo, rat; conditions: OxyHb 2.5 × 10^−4 M alone
[2] = system: rat; conditions: rat model of rhythmic bladder contractions; cited from earlier work

Molecule: oxyhaemoglobin [OxyHb]
- BC bladder capacity, after (a) ([1]; n=5): a: 0.65 ± 0.06 ml
- BC bladder capacity, change (dif.) compared with the pre-value ([1]; n=5): dif.: −29.3%
- ICI intercontraction interval, after (a) ([1]; n=5): a: 3.33 ± 0.18 min
- ICI intercontraction interval, change (dif.) compared with the pre-value ([1]; n=5): dif.: −32.9%
- MP micturition pressure, after (a) ([1]; n=5): a: 97 ± 5 cm H2O
- MP micturition pressure, change (dif.) compared with the pre-value ([1]; n=5): dif.: +64.4%
- TP threshold pressure, after (a) ([1]; n=5): a: 9.84 ± 1.56 cm H2O
- TP threshold pressure, change (dif.) compared with the pre-value ([1]; n=5): dif.: +12.8%
- BC bladder capacity, before (b) ([1]; n=5, pre-value): b: 0.92 ± 0.10 ml
- ICI intercontraction interval, before (b) ([1]; n=5, pre-value): b: 4.96 ± 0.33 min
- MP micturition pressure, before (b) ([1]; n=5, pre-value): b: 59 ± 8 cm H2O
- TP threshold pressure, before (b) ([1]; n=5, pre-value): b: 8.72 ± 1.31 cm H2O

Molecule: COc1cccc(C2(O)CCCCC2CN(C)C)c1 (stereo not shown) [tramadol]
- effect on bladder function [2]: positive effect on bladder function
